Test [1] addresses Gonadotropin-releasing hormone receptor (Macaca mulatta). Kind of test: […] inhibition of monkey Gonadotropin-releasing hormone receptor.
The target is the same in test [2]. In words: […] inhibition of monkey Gonadotropin releasing hormone receptor.

pKi: −log10 of the molar value.

As usually defined, the pKi is −log10 of the Ki, conventionally taken in molar units. Consider `COc1cccc(-c2c(C)n(Cc3c(F)cccc3F)c(=O)n(C[C@H](C)NCc3ccccc3)c2=O)c1F` [3-((S)-2-Benzylamino-propyl)-1-(2,6-difluoro-benzyl)-5-(2-fluoro-3-methoxy-phenyl)-6-methyl-1H-pyrimidine-2,4-dione], for which the pKi in test [1] was 6.26. For `COc1cccc(-c2c(C)n(Cc3c(F)cccc3F)c(=O)n(C[C@@H](C)NCc3nccs3)c2=O)c1F` [1-(2,6-Difluoro-benzyl)-5-(2-fluoro-3-methoxy-phenyl)-6-methyl-3-{(R)-2-[(thiazol-2-ylmethyl)-amino]-propyl}-1H-pyrimidine-2,4-dione], the pKi in test [2] was 6.09.

With `COc1cccc(-c2c(C)n(Cc3c(F)cccc3F)c(=O)n(C[C@H](C)NCc3sccc3C)c2=O)c1F` [1-(2,6-Difluoro-benzyl)-5-(2-fluoro-3-methoxy-phenyl)-6-methyl-3-{(S)-2-[(3-methyl-thiophen-2-ylmethyl)-amino]-propyl}-1H-pyrimidine-2,4-dione], in test [1], the negative logarithm of the Ki (pKi) was 7.06.

These data come from BindingDB's records for doi:10.1021/jm030472z (Neurocrine Biosciences, 2004).
